Assay results from patent US20020137929A1, “1 - (3-heterocyclylphenyl) isothiourea, -isourea, -guanidine and -amidine herbicidal agents” (Intellectual Property Department, BASF Aktiengesellschaft, priority 1998, published 2002).

Assays:
[1] = system: CASOB (Sicklepod); experiment: Postemergence herbicidal evaluation; assay type: in vivo, Cassia obtusifolia; details: postemergence
Procedure, shortened: (§1)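 Each compound, dispersed in an acetone/water mix (50/50) carrying 0.5% TWEEN 20, is nozzle-sprayed at 40 psi on approximately two-week-old seedlings at about 0.0156–0.500 kg/ha. Plants are assessed 4–5 weeks afterward on a 0–9 scale relative to control; duplicate tests are averaged.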

[2] = system: CHEAL (Lambsquarters, Common); experiment: Postemergence herbicidal evaluation; assay type: in vivo, Chenopodium album; details: postemergence
Procedure, shortened: as §1

[3] = system: GALAP (Galium); experiment: Postemergence herbicidal evaluation; assay type: in vivo, Galium aparine; details: postemergence
Procedure, shortened: as §1

[4] = system: ORYSAT (Rice, Tebonnet); experiment: Postemergence herbicidal evaluation; assay type: in vivo, Oryza sativa, (L.) Tebonnet; details: postemergence
Procedure, shortened: as §1

[5] = system: ZEAMX (Corn, Field); experiment: Postemergence herbicidal evaluation; assay type: in vivo, Zea mays; details: postemergence
Procedure, shortened: as §1

[6] = system: AMBEL (Ragweed, Common); experiment: Preemergence herbicidal evaluation; assay type: in vivo, Ambrosia artemisifolia; details: rated 4-5 weeks after treatment
Procedure, shortened: (§2)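 In this greenhouse assay, monocot and dicot seeds are planted in soil and treated prior to emergence with an aqueous acetone spray (about 0.0156-0.500 kg/ha). Plants are assessed visually against control on a 0-9 scale after 4-5 weeks.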

[7] = system: SETVI (Foxtail, Green); experiment: Preemergence herbicidal evaluation; assay type: in vivo, Setaria viridis; details: rated 4-5 weeks after treatment
Procedure, shortened: as §2

[8] = system: GLXMAW (Soybean, Williams); experiment: Preemergence herbicidal evaluation; assay type: in vivo, Glycine max, (L.) Merr. cv Williams; details: rated 4-5 weeks after treatment
Procedure, shortened: as §2

[9] = system: ORYSAT (Rice, Tebonnet); experiment: Preemergence herbicidal evaluation; assay type: in vivo, Oryza sativa, (L.) Tebonnet; details: rated 4-5 weeks after treatment
Procedure, shortened: as §2

[10] = system: MOOVA (Monochoria); experiment: Preemergence weed control under flooded paddy conditions; assay type: in vivo, Monochoria vaginalis; details: rated 3-4 weeks after treatment
Procedure, shortened: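 Silt loam, seeds in top 0.5 cm; flood held 1.5-3 cm; test cpd as acetone/water 50/50 into flood water, ~0.0313-0.500 kg/ha a.i.; greenhouse 3-4 wk; visual 0-9 score vs control.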

[11] = system: CYPIR (Rice Flatsedge); experiment: Postemergence weed control under flooded paddy conditions; assay type: in vivo, Cyperus iria; details: postemergence weeds, 3-4 weeks after treatment
Description: Results of herbicide evaluation are expressed on a rating scale (0-9). The scale is based upon a visual observation of plant stand, vigor, malformation, size, chlorosis and overall plant appearance as compared with a control.
Plastic containers containing weeds which are 3 to 5 cm tall and rice seedlings at the 1.5 to 2.5 leaf stage are flooded with water. The water is maintained at 1.5 to 3 cm above the soil surface for the duration of the experiment. Test compounds are applied as aqueous/ acetone mixtures 50/50 v/v directly into the flood water to provide the equivalent of about 0.0313 to 0.500 kg/ha of active ingredient. The treated containers are placed on greenhouse benches and cared for in accordance with conventional greenhouse procedures. Three to four weeks after treatment, the test is terminated and each container is examined and herbicidal effect rated according to the rating system provided in Example 37. The compounds evaluated are reported by compound number given in Example 37.

[12] = system: SAGPY (Arrowhead (Pygmaea)); experiment: as above; assay type: in vivo, Sagittaria pygmaea; details: postemergence weeds, 3-4 weeks after treatment
Procedure, shortened: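 Containers holding 3–5 cm weeds and rice at 1.5–2.5 leaves are flooded to 1.5–3 cm above soil. Compound in 50/50 v/v aqueous/acetone is then added directly to the water, about 0.0313–0.500 kg/ha. Plants are kept in the greenhouse and rated 0–9 visually at 3–4 weeks.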

For `CCOC(=O)CN1C(=O)C(Cc2ccccc2)SC1=Nc1cc(-n2c(=O)cc(C(F)(F)F)n(C)c2=O)c(F)cc1Cl` (stereo not drawn) [Compound 24, Ethyl 5-benzyl-2-{{2-chloro-5-[3,6-dihydro-3-methyl-2,6-dioxo-4-(trifluoromethyl)-1(2H)-pyrimidinyl]-4-fluorophenyl}imino}-4-oxo-3-thiazolidineacetate], the CASOB herbicidal rating ([1]; rate 0.0158 kg/ha) was 0.0, the CASOB herbicidal rating ([1]; rate 0.0315 kg/ha) was 0.0 and the CASOB herbicidal rating ([1]; rate 0.0630 kg/ha) was 0.0. It also gave a CHEAL herbicidal rating ([2]; rate 0.0158 kg/ha) of 2.0, a CHEAL herbicidal rating ([2]; rate 0.0315 kg/ha) of 4.0 and a CHEAL herbicidal rating ([2]; rate 0.0630 kg/ha) of 9.0. The GALAP herbicidal rating ([3]; rate 0.0158 kg/ha) was 1.0, the GALAP herbicidal rating ([3]; rate 0.0315 kg/ha) was 4.0 and the GALAP herbicidal rating ([3]; rate 0.0630 kg/ha) was 6.0. It also gave an ORYSAT herbicidal rating ([4]; rate 0.0158 kg/ha) of 2.5, an ORYSAT herbicidal rating ([4]; rate 0.0315 kg/ha) of 3.0 and an ORYSAT herbicidal rating ([4]; rate 0.0630 kg/ha) of 3.0. The ZEAMX herbicidal rating ([5]; rate 0.0158 kg/ha) was 4.0, the ZEAMX herbicidal rating ([5]; rate 0.0315 kg/ha) was 4.5 and the ZEAMX herbicidal rating ([5]; rate 0.0630 kg/ha) was 5.5. For the same compound, the “AMBEL preemergence herbicidal rating” value ([6]; rate 0.0625 kg/ha) was 0.0, the “AMBEL preemergence herbicidal rating” value ([6]; rate 0.1250 kg/ha) was 0.0 and the “AMBEL preemergence herbicidal rating” value ([6]; rate 0.2500 kg/ha) was 2.0. For the same compound, the “SETVI preemergence herbicidal rating” value ([7]; rate 0.0625 kg/ha) was 0.0, the “SETVI preemergence herbicidal rating” value ([7]; rate 0.1250 kg/ha) was 0.0 and the “SETVI preemergence herbicidal rating” value ([7]; rate 0.2500 kg/ha) was 1.0. For the same compound, the “GLXMAW preemergence herbicidal rating” value ([8]; rate 0.0625 kg/ha) was 0.0, the “GLXMAW preemergence herbicidal rating” value ([8]; rate 0.1250 kg/ha) was 0.0 and the “GLXMAW preemergence herbicidal rating” value ([8]; rate 0.2500 kg/ha) was 0.0. The “ORYSAT preemergence herbicidal rating” value ([9]; rate 0.0625 kg/ha) was 0.0, the “ORYSAT preemergence herbicidal rating” value ([9]; rate 0.1250 kg/ha) was 0.0 and the “ORYSAT preemergence herbicidal rating” value ([9]; rate 0.2500 kg/ha) was 0.0. For the same compound, the “Herbicidal rating MOOVA” value ([10]; 0.0313 kg/ha) was 0.0, the “Herbicidal rating MOOVA” value ([10]; 0.0625 kg/ha) was 9.0 and the “Herbicidal rating MOOVA” value ([10]; 0.1250 kg/ha) was 9.0. The “Herbicidal rating MOOVA” value ([10]; 0.2500 kg/ha) was 9.0, the “Herbicidal rating CYPIR” value ([11]; rate 0.0313 kg/ha) was 0.0 and the “Herbicidal rating CYPIR” value ([11]; rate 0.0625 kg/ha) was 0.0. For the same compound, the “Herbicidal rating CYPIR” value ([11]; rate 0.1250 kg/ha) was 0.0, the “Herbicidal rating CYPIR” value ([11]; rate 0.2500 kg/ha) was 0.0 and the “Herbicidal rating SAGPY” value ([12]; rate 0.0313 kg/ha) was 0.0. For the same compound, the “Herbicidal rating SAGPY” value ([12]; rate 0.0625 kg/ha) was 0.0, the “Herbicidal rating SAGPY” value ([12]; rate 0.1250 kg/ha) was 0.0 and the “Herbicidal rating SAGPY” value ([12]; rate 0.2500 kg/ha) was 0.0.
